Marks after values point to notes of the source that are not given here.
Tests used:
CYP3A4 [1] = details: cited from earlier work
CYP3A4 [2] = biological target: T1, CYP3A4 (Homo sapiens, UniProt P08684, S18F); details: cited from earlier work
3A4 = 3A4 in the presence of testosterone, reduction by NADPH/P450 reductase; cited from earlier work
CYP3A4 [3] = biological target: T1, CYP3A4; assay: Redox potential measurements by cyclic voltammetry of purified CYP3A4; details: 11 μM 3A4 complexed with 200 μM TST or 100 μM compound 1

SMILES	kcat (CYP3A4 [1]) [s⁻¹]	rate of dissociation from the low-spin complex (CYP3A4 [2]) [s⁻¹]	reduction rate, reported value (3A4) [s⁻¹]	ks (rate of electron transfer / rate constant for reduction) (CYP3A4 [3]) [s⁻¹]	α (electron transfer coefficient) (CYP3A4 [3])	E^0 (formal potential) (CYP3A4 [3]; Equation 1)	ΔEp, ½ (CYP3A4 [3]; equation 2)	ks (rate of electron transfer / rate constant for reduction) (CYP3A4 [3]; listed as TST) [s⁻¹]
CCC(C)n1ncn(-c2ccc(N3CCN(c4ccc(OCC5COC(Cn6cncn6)(c6ccc(Cl)cc6Cl)O5)cc4)CC3)cc2)c1=O (centres unmarked) [Itraconazole, itraconazole]	0.0045	0.002	–	–	–	–	–	–
C[C@]12CC[C@H]3[C@@H](CCC4=CC(=O)CC[C@@]43C)[C@@H]1CC[C@@H]2O [Testosterone]	–	–	21	5.6	0.396	-189 (3) ^e mV	157 (6) mV	5.56

From article PMC3115501 (Archives of biochemistry and biophysics, 2011)
